Measured values published in ChEMBL document CHEMBL3639203, “Macrocyclic indoles as hepatitis C virus inhibitors” (2013).

Target: Genome polyprotein (Hepatitis C virus genotype 1b (strain HC-J4) (HCV), UniProt O92972)
Assay: Inhibition Assay: Inhibition assay using HCV NS5B.

Sequence of Genome polyprotein (O92972 2420-3010 limits assumed): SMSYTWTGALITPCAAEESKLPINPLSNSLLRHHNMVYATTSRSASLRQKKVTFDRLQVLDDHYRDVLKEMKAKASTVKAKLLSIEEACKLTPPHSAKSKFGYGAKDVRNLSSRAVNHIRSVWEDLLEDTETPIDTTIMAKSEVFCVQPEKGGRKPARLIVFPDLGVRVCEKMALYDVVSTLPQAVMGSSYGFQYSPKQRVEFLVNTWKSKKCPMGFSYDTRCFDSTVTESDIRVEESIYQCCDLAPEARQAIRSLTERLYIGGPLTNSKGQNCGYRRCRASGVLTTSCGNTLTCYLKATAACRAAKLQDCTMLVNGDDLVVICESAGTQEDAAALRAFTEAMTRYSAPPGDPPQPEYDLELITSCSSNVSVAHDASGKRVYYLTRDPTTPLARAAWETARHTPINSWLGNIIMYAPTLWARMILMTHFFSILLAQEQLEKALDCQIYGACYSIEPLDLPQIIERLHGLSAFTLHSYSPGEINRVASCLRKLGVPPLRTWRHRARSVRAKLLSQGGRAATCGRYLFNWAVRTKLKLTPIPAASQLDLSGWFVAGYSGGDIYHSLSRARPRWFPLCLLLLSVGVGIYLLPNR

CN1C/C=C\CCNC(=O)Cn2c(-c3ccc(Cl)cc3)c(C3CCCCC3)c3ccc(cc32)C(=O)NS1(=O)=O
IC50: 0.17 µM
